ChEMBL document CHEMBL3045439, “Isoforms of the heteropteran Nezara viridula ecdysone receptor: protein characterisation, RH5992 insecticide binding and homology modelling” (Pest Manag Sci, 2011)

Tests used:
Format in all cases: protein-complex assay
[1] = target: T1, Ecdysone receptor (Leptinotarsa decemlineata, UniProt Q4W6C8+Q4W6D0); assay: Binding affinity to Leptinotarsa decemlineata EcR
T1 sequence (Q4W6D0 whole entry): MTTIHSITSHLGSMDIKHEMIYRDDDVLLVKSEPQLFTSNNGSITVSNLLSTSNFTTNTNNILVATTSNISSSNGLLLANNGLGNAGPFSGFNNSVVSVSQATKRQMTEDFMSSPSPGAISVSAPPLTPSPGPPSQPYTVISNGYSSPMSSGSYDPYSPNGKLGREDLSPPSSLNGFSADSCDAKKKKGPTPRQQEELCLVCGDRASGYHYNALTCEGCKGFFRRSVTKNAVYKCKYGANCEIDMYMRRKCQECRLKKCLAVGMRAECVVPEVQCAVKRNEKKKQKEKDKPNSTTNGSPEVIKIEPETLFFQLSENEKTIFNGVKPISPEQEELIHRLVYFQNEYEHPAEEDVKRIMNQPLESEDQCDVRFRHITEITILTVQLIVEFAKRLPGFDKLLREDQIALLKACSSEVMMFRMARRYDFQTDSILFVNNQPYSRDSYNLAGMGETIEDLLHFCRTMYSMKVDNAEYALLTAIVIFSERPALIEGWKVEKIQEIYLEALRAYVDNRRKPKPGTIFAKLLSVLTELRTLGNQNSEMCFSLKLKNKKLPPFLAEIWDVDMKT
T1 sequence (Q4W6C8 whole entry): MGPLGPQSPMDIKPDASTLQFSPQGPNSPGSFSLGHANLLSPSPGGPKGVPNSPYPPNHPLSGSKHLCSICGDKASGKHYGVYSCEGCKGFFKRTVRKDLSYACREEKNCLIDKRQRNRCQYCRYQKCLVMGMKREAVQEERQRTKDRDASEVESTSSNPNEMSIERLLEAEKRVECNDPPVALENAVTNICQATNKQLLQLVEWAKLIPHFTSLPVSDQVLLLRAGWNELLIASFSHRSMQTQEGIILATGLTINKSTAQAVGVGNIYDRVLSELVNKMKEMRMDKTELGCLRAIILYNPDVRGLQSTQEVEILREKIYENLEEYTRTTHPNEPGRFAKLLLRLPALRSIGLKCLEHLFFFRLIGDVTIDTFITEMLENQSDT

[2] = target: T2, Ecdysone receptor (Nezara viridula, UniProt E5L6Y0+E5L6Y1); assay: Displacement of [3H]PonA from recombinant Nezara viridula EcR10
T2 sequence (E5L6Y1 whole entry): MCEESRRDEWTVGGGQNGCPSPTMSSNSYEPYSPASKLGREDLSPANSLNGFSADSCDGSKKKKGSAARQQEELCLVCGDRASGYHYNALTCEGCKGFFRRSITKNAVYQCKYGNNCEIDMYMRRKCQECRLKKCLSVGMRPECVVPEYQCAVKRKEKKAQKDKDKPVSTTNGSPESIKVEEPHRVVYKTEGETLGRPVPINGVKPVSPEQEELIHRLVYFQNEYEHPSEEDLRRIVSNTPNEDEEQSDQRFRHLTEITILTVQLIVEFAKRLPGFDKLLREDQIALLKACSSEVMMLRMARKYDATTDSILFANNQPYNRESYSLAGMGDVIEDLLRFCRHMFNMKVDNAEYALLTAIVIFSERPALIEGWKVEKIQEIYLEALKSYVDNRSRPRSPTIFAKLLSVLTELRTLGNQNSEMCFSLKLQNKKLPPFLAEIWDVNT
T2 sequence (E5L6Y0 whole entry): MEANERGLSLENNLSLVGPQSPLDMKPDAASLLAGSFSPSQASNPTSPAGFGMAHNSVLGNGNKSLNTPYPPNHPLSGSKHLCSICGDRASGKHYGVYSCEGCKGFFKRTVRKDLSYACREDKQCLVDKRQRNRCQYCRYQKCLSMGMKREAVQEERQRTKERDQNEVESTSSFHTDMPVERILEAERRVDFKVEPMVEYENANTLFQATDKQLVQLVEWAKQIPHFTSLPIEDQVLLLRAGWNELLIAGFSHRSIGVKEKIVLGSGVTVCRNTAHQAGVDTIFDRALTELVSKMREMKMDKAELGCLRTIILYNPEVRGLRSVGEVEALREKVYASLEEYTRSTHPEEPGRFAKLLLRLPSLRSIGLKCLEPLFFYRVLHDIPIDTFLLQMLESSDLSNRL

[3] = target: T3, Ecdysone receptor (Locusta migratoria, UniProt O97095+Q6V7U7); assay: Binding affinity to Locusta migratoria ecdysone receptor (EcR)
T3 sequence (O97095 whole entry): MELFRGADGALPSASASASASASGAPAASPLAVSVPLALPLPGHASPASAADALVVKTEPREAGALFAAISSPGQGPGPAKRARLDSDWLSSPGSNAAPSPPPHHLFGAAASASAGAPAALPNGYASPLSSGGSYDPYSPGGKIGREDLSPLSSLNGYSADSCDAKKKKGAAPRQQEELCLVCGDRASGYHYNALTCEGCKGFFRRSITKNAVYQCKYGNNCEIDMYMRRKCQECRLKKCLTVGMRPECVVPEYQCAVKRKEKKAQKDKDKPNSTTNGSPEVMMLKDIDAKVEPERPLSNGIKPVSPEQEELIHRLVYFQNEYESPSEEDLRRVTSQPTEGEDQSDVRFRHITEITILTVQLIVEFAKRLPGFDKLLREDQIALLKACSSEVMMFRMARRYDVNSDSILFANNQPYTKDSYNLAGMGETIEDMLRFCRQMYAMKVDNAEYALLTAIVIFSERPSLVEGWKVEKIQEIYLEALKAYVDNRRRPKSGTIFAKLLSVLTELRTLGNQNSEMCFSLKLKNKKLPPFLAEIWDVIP
T3 sequence (Q6V7U7 whole entry): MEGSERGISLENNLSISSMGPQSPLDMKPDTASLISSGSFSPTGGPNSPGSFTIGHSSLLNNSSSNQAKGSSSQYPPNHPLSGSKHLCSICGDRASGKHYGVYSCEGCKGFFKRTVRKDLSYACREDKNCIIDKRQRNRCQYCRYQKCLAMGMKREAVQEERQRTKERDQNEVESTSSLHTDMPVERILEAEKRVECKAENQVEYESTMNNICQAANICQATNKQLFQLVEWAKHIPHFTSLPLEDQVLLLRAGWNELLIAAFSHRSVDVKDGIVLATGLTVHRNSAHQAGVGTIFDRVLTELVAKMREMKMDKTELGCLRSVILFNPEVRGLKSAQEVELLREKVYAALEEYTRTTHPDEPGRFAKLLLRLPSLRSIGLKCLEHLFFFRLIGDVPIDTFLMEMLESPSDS

Row | Structure (SMILES) | IC50 [1] | IC50 [2] | Ki [2] | Ki [1] | Ki [3]
1 | CC(C)(O)CC[C@@H](O)[C@](C)(O)[C@H]1CC[C@@]2(O)C3=CC(=O)[C@@H]4C[C@@H](O)[C@@H](O)C[C@]4(C)[C@H]3CC[C@]12C [20-HYDROXYECDYSONE] | 0.437 µM | 3 µM | 2.5 µM |  | 
2 | CCc1ccc(C(=O)NN(C(=O)c2cc(C)cc(C)c2)C(C)(C)C)cc1 [TEBUFENOZIDE] |  | 20 µM | 16.8 µM | 2.51 µM | 100 µM
